Results reported in PMC12220852, “An adamantane‐based ligand as a novel chemical tool for thermosensory TRPM8 channel therapeutic modulation” (The Febs Journal, 2025).
Entries after “also recorded” stand apart in the source; their conditions may differ. Like-named read-outs stand apart in the source and are kept apart here.

What was measured:
[1] = target: T1, recombinant human TRPM8 stably expressed in HEK293 cells (hTRPM8) (Homo sapiens, UniProt Q7Z2W7); assay: Ca2+ microfluorimetry screen for agonist/antagonist activity in hTRPM8-HEK293 cells; type: cell-based; details: for Activity (agonist/antagonist): agonism = compound-induced Ca2+ influx, antagonism = modulation of WS-12-induced Ca2+ influx; for Hill coefficient: hTRPM8-HEK293 Ca2+ microfluorimetry dose-response; for EC50: half of channel activation
T1 construct: expressed in transfected cells
T1 sequence (Q7Z2W7 whole entry): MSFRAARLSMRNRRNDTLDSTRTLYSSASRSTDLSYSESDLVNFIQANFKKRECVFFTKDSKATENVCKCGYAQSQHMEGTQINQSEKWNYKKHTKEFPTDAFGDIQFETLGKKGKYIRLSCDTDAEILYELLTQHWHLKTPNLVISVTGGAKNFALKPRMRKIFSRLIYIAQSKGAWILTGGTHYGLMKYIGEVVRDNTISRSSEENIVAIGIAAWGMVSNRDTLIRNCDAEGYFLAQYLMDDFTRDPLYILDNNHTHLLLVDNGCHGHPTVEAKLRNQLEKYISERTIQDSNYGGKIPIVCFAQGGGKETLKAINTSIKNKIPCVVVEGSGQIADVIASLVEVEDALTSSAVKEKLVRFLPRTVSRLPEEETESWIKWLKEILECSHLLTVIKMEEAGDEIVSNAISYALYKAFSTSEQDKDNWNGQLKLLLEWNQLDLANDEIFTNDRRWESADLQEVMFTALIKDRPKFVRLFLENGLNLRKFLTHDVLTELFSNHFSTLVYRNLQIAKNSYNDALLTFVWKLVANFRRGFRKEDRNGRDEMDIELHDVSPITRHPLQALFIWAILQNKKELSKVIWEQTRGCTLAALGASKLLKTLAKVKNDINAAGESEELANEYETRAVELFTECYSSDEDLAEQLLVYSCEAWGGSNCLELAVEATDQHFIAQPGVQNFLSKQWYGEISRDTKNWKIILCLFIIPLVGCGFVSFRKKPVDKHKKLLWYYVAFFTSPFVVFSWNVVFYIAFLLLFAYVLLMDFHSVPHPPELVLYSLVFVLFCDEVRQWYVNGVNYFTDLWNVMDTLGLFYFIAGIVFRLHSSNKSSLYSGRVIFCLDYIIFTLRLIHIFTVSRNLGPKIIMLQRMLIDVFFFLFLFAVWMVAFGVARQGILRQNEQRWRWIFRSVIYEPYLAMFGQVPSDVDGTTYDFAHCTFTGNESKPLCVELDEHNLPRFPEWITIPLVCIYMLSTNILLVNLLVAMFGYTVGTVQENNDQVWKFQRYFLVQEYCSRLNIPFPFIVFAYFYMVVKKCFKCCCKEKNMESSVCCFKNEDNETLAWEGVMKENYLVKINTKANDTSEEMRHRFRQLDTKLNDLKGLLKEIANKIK
Source text: We first evaluated the series of compounds 20–29 synthesized using the Passerini‐Adamantane reaction. All compounds were screened for channel agonism and antagonism on recombinant human TRPM8 stably expressed in HEK293 cells (hTRPM8‐HEK293) with Ca^2+ microfluorimetry. […] Compound‐induced TRPM8‐mediated Ca^2+ influx was confirmed using untransfected HEK293 cells and the channel blocker AMTB. […] The concentration of compounds to reach half of channel activation (EC50) or to block half‐channel activity evoked by WS‐12 (IC50) are reported in Table 1, along with the percentage of maximal activation or blockade (Efficacy).
Assays were conducted to assess the channel activity of the recombinant hTRPM8 stably expressed in HEK‐293 cells. HEK‐293‐hTRPM8 cells were cultured in a monolayer using a DMEM GlutaMax with 10% FBS and 1% P/S and maintained at 37 °C in 5% CO2. For experiments, cells were prepared and seeded at the indicated densities. To evaluate compound effectiveness against hTRPM8 activity, microfluorometry‐based calcium flux assays were performed using Fluo‐4 NW Ca^2+ dye and fluorescence detection. HEK cell lines expressing hTRPM8 were seeded in 96‐well plates and incubated with the dye‐loading solution. Ion channel activity was measured using a plate reader, and fluorescence intensity changes were recorded following the addition of vehicle, compound at varying concentrations, and antagonist (10 μM AMTB). Data analysis included calculating the Z‐factor for each assay and normalizing compound effects to […]. Data were analyzed to determine the concentration exerting half‐maximal inhibition (IC50) or activation (EC50) of agonist‐induced calcium elevation, using GRAPHPAD PRISM8® software (Boston, MA, USA). All experiments were conducted in triplicate, and results are presented as mean ± standard deviation.

[2] = target: T1, recombinant human TRPM8 stably expressed in HEK293 cells (hTRPM8); assay: as above; type: cell-based; details: agonists vs WS-12, antagonists vs WS-12 response, read-out: Efficacy (percentage of maximal activation or blockade)
[3] = hTRPM8-HEK293, block of half channel activity evoked by WS-12, mean ± SD, N = 3, read-out: IC50
[4] = hTRPM8-HEK293, mean ± SD, N = 3

Structure (SMILES) | Activity (agonist/antagonist) ([1]; hTRPM8-HEK293) | IC50 [1, 3] [µM] | Hill coefficient ([1]; mean ± SD) | Emax [2] [%] | IC50 [1] [µM] | EC50 [1, 4] [µM] | fold lower agonist potency compared with α‐aminoacyl amide 32 ([1]; hTRPM8-HEK293, EC50 comparison) [fold]
O=C(COC(=O)c1ccccc1)NC12CC3CC(CC(C3)C1)C2 [Compound 20, 2‐((3S,5S,7S)‐adamantan‐1‐ylamino)‐2‐oxoethyl benzoate] | Antagonist | 1.8 ± 1.1 | 0.4 ± 1.2 | 60 | – | – | –
O=C(COC(=O)Cc1ccccc1)NC12CC3CC(CC(C3)C1)C2 [Compound 21, 2‐((3S,5S,7S)‐adamantan‐1‐ylamino)‐2‐oxoethyl 2‐phenylacetate] | Antagonist | – | 0.5 ± 2.3 | 44 | 1.5 ± 1.1 | – | –
CC(=O)OCC(=O)NC12CC3CC(CC(C3)C1)C2 [Compound 22, 2‐((3S,5S,7S)‐adamantan‐1‐ylamino)‐2‐oxoethyl acetate] | agonistic activity; also recorded: Agonist | – | 0.4 ± 1.3 | 64 | – | 1.1 ± 1.5 | –
CCCC(=O)OCC(=O)NC12CC3CC(CC(C3)C1)C2 [Compound 24, 2‐((3S,5S,7S)‐adamantan‐1‐ylamino)‐2‐oxoethyl butyrate] | agonistic activity; also recorded: Agonist | – | 0.6 ± 0.2 | 19 | – | 19 ± 2 | –
O=C(COC(=O)C1CCCC1)NC12CC3CC(CC(C3)C1)C2 [Compound 25, 2‐((3S,5S,7S)‐adamantan‐1‐ylamino)‐2‐oxoethyl cyclopentane carboxylate] | Antagonist | 45 ± 2 | 0.8 ± 3.0 | 57 | – | – | –
O=C(COC(=O)c1cccnc1)NC12CC3CC(CC(C3)C1)C2 [Compound 26, 2‐((3S,5S,7S)‐adamantan‐1‐ylamino)‐2‐oxoethyl nicotinate] | agonist activity | – | 0.4 ± 6.4 | 72 | – | 1.9 ± 1.6 | –
CC(=O)NCCCC(=O)OCC(=O)NC12CC3CC(CC(C3)C1)C2 [Compound 27, 2‐((3S,5S,7S)‐adamantan‐1‐ylamino)‐2‐oxoethyl 4‐acetamidobutanoate] | agonistic activity; also recorded: Agonist | – | 0.3 ± 1.6 | 60 | – | 0.6 ± 1.2 | –
O=C(COC(=O)c1ccc(Cl)cc1)NC12CC3CC(CC(C3)C1)C2 [Compound 28, 2‐((3S,5S,7S)‐adamantan‐1‐ylamino)‐2‐oxoethyl 4‐chlorobenzoate] | agonist activity | – | 0.1 ± 0.2 | 87 | – | 1.2 ± 1.2 | –
O=C(COC(=O)c1cccc([N+](=O)[O-])c1)NC12CC3CC(CC(C3)C1)C2 [Compound 29, 2‐((3S,5S,7S)‐adamantan‐1‐ylamino)‐2‐oxoethyl 3‐nitrobenzoate] | Antagonist | 2.3 ± 1.1 | 0.5 ± 3.0 | 69 | – | – | –
O=C(CN(C(=O)c1ccccc1)C1CC1)NC12CC3CC(CC(C3)C1)C2 [Compound 30, N‐(2‐(((3S,5S,7S)‐adamantan‐1‐yl)amino)‐2‐oxoethyl)‐N‐cyclopropylbenzamide] | Agonist | – | 0.7 ± 1.6 | 92 | – | 1.5 ± 1.5 | –
CCCC(=O)N(CC(=O)NC12CC3CC(CC(C3)C1)C2)C1CC1 [Compound 31, N‐(2‐(((3S,5S,7S)‐adamantan‐1‐yl)amino)‐2‐oxoethyl)‐N‐cyclopropylbutyramide] | Agonist | – | 0.7 ± 2.5 | 72 | – | 0.3 | –
O=C(CN(C(=O)C1CCCC1)C1CC1)NC12CC3CC(CC(C3)C1)C2 [Compound 32, N‐(2‐(((3S,5S,7S)‐adamantan‐1‐yl)amino)‐2‐oxoethyl)‐N‐cyclopropylcyclopentanecarboxamide] | potent hTRPM8 agonist | – | 0.2 ± 1.5 | 56 | – | 0.4 | –
O=C(CN(C(=O)c1ccccc1-c1ccccc1)C1CC1)NC12CC3CC(CC(C3)C1)C2 [Compound 33, N‐(2‐(((3S,5S,7S)‐adamantan‐1‐yl)amino)‐2‐oxoethyl)‐N‐cyclopropyl‐[1,1′‐biphenyl]‐2‐carboxamide] | moderate antagonistic activity; also recorded: Antagonist | 1.1 ± 1.2 | 2.0 ± 7.8 | 48 | – | – | –
CC(=O)N(CC(=O)NC12CC3CC(CC(C3)C1)C2)C1CC1 [Compound 34, N‐((3S,5S,7S)‐adamantan‐1‐yl)‐2‐(N‐cyclopropylacetamido)acetamide] | Agonist | – | 0.3 ± 14 | 54 | – | 0.2 | –
O=C(CN(C(=O)c1cc2ccccc2s1)C1CC1)NC12CC3CC(CC(C3)C1)C2 [Compound 35, N‐(2‐(((3S,5S,7S)‐adamantan‐1‐yl)amino)‐2‐oxoethyl)‐N‐cyclopropylbenzo[b]thiophene‐2‐carboxamide] | moderate antagonistic activity; also recorded: Antagonist | 0.6 ± 1.2 | 2.0 ± 4.3 | 40 | – | – | –
O=C(CN(C(=O)Cc1ccccc1)C1CC1)NC12CC3CC(CC(C3)C1)C2 [Compound 36, N‐(2‐(((3S,5S,7S)‐adamantan‐1‐yl)amino)‐2‐oxoethyl)‐N‐cyclopropyl‐2‐phenylacetamide] | Agonist | – | 2.3 ± 2.6 | 47 | – | 4.9 ± 1.7 | –
CC(=O)N(CC(=O)NC12CC3CC(CC(C3)C1)C2)C1CCCCC1 [Compound 37, N‐((3S,5S,7S)‐adamantan‐1‐yl)‐2‐(N‐cyclohexylacetamido)acetamide] | Agonist | – | 0.9 ± 9.2 | 48 | – | 0.2 | –
CC(=O)N(CC(=O)NC12CC3CC(CC(C3)C1)C2)C12CC3CC(CC(C3)C1)C2 [Compound 38, N‐((3S,5S,7S)‐adamantan‐1‐yl)‐2‐(N‐((3S,5S,7S)‐adamantan‐1‐yl)acetamido)acetamide] | Agonist | – | 0.3 ± 3.6 | 65 | – | 2 ± 1.4 | –
CCCCN(CC(=O)NC12CC3CC(CC(C3)C1)C2)C(C)=O [Compound 39, N‐((3S,5S,7S)‐adamantan‐1‐yl)‐2‐(N‐butylacetamido)acetamide] | Agonist | – | 0.4 ± 9.1 | 64 | – | 0.5 ± 1.4 | –
CC(=O)N(CC(=O)NC12CC3CC(CC(C3)C1)C2)Cc1ccccc1 [Compound 40, N‐((3S,5S,7S)‐adamantan‐1‐yl)‐2‐(N‐benzylacetamido)acetamide] | Agonist | – | 0.7 ± 2.4 | 86 | – | 1.4 ± 1.4 | –
O=C(CN(Cc1ccccc1)C(=O)Cc1ccccc1)NC12CC3CC(CC(C3)C1)C2 [Compound 41, N‐(2‐(((3S,5S,7S)‐adamantan‐1‐yl)amino)‐2‐oxoethyl)‐N‐benzyl‐2‐phenylacetamide] | Agonist | – | 2.1 ± 1.0 | 49 | – | 0.9 ± 1.1 | –
O=C(CN1CCN(C(=O)c2ccccc2)CC1)NC12CC3CC(CC(C3)C1)C2 [Compound 42, N‐((3S,5S,7S)‐adamantan‐1‐yl)‐2‐(4‐benzoylpiperazin‐1‐yl)acetamide] | Agonist | – | 0.4 ± 4.3 | 73 | – | 5.4 ± 1.5 | –
O=C(CN1CCN(C(=O)C2CCCC2)CC1)NC12CC3CC(CC(C3)C1)C2 [Compound 43, N‐((3S,5S,7S)‐adamantan‐1‐yl)‐2‐(4‐(cyclopentanecarbonyl)piperazin‐1‐yl)acetamide] | TRPM8 agonist | – | 0.6 ± 1.8 | 82 | – | 9.3 ± 1.5 | > 10
O=C(CN1CCN(C(=O)Cc2ccccc2)CC1)NC12CC3CC(CC(C3)C1)C2 [Compound 44, N‐((3S,5S,7S)‐adamantan‐1‐yl)‐2‐(4‐(2‐phenylacetyl)piperazin‐1‐yl)acetamide] | Agonist | – | 0.7 ± 4.0 | 69 | – | 9.6 ± 1.5 | –
CC(=O)N1CCN(CC(=O)NC23CC4CC(CC(C4)C2)C3)CC1 [Compound 45, 2‐(4‐acetylpiperazin‐1‐yl)‐N‐((3S,5S,7S)‐adamantan‐1‐yl)acetamide] | Agonist | – | 0.7 ± 2.1 | 54 | – | 2.3 ± 1.6 | –
